Data published in patent US9493468B2, “Antifungal 5,6-dihydro-4H-pyrrolo[1,2-a][1,4]benzo-diazepines and 6H-pyrrolo[1,2-a][1,4]benzodiazepines substituted with heterocyclic derivatives” (Janssen Pharmaceutica NV, priority 2011, dated 2016).

Tests used:
Assay type in all cases: cell-based
[1] = test system: Candida parapsilosis; test: Antifungal activity in vitro, resazurin growth inhibition: Candida parapsilosis (B66126); conditions: for IC50: Lodderomyces parapsilosis, read-out: Inf. D: Candida parapsilosis B66126 pIC50 (converted)
Outline: (§1)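 Fungi (10^3 cfu/well) grown in RPMI-1640 with L-glutamine, 2% glucose, MOPS pH 7.0, against 2- or 4-fold compound dilutions up to 64 μM. Dermatophytes incubated one week or more at 27° C. Growth inhibition read fluorimetrically (λex 550, λem 590 nm) after resazurin addition and further incubation.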

[2] = test system: Sporothrix schenkii; test: Antifungal activity in vitro, resazurin growth inhibition: Sporothrix schenkii (B62482); conditions: for IC50: read-out: Inf. A: Sporothrix schenkii B62482 pIC50 (converted)
Outline: as §1

[3] = test system: Aspergillus fumigatus; test: Antifungal activity in vitro, resazurin growth inhibition: Aspergillus fumigatus (B42928); conditions: for IC50: read-out: Inf. E: Aspergillus fumigatus B42928 pIC50 (converted)
Outline: as §1

[4] = test system: Scedosporium prolificans; test: Antifungal activity in vitro, resazurin growth inhibition: Scedosporium prolificans (IHEM21157); conditions: for IC50: Lomentospora prolificans, read-out: Inf. I: Scedosporium prolificans IHEM21157 pIC50 (converted)
Description: (§2) The standard susceptibility screen is performed in 96-well plates (U-bottom, Greiner Bio-One). Serial dilutions (2-fold or 4-fold) of 20 mM compound stock solutions are made in 100% DMSO, followed by an intermediate dilution step in water. These serial dilutions (10 μl) are then spotted onto test-plates that can be stored in the dark at 4° C. for a maximum period of 2 weeks. An adequate broad dose-range is included with 64 μM as the highest in-test concentration. The culture medium RPMI-1640 is supplemented with L-glutamine, 2% glucose and buffered with 3-(N-morpholino)-propanesulfonic acid (MOPS) at pH 7.0±0.1.
(§3) The different fungal species/isolates (Table 3a) are cryopreserved and 1/1000 diluted in medium just prior to use. A standard inoculum of 200 μl containing 10^3 colony-forming unit (cfu) is then added to each well. A positive control (100% growth=fungal culture without antifungal) and a negative control (0% growth ═RPMI-MOPS medium) are included on each plate. Optimal incubation time and temperature are dependent on the fungal species and vary from 24 h for yeasts (37° C.) to one week or more for dermatophytes (27° C.). Inhibition of fungal growth is measured after adding 10 μl of 0.005% (w/v) resazurin (Sigma Aldrich) to each well, based on the principle that living cells convert the non-fluorescent blue resazurin into the pink and fluorescent resorufin, allowing fluorimetric reading (λex 550 nm and λem 590 nm) after an additional incubation period (‘resa’ time mentioned in Table 3a).

[5] = test system: Rhizomucor miehei; test: Antifungal activity in vitro, resazurin growth inhibition: Rhizomucor miehei (IHEM13391)
Description: as §2, §3

[6] = test system: Scedosporium apiospermum; test: Antifungal activity in vitro, resazurin growth inhibition: Scedosporium apiospermum (IHEM3817); conditions: for IC50: read-out: Inf. H: Scedosporium apiospermum IHEM3817 pIC50 (converted)
Description: as §2, §3

[7] = test system: Cryptococcus neoformans; test: Antifungal activity in vitro, resazurin growth inhibition: Cryptococcus neoformans (B66663); conditions: for IC50: read-out: Inf. F: Cryptococcus neoformans B66663 pIC50 (converted)
Outline: as §1

[8] = test system: Trichophyton mentagrophytes; test: Antifungal activity in vitro, resazurin growth inhibition: Trichophyton mentagrophytes (B70554); conditions: for IC50: read-out: Inf. G: Trichophyton mentagrophytes B70554 pIC50 (converted)
Outline: (§4)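 Dermatophytes incubated at 27° C. for one week or more with compound, max 64 μM, in RPMI-1640/MOPS pH 7.0±0.1, 10^3 cfu/well. Viability by resazurin-to-resorufin fluorescence, 550/590 nm.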

[9] = test system: Microsporum canis; test: Antifungal activity in vitro, resazurin growth inhibition: Microsporum canis (B68128); conditions: for IC50: read-out: Inf. B: Microsporum canis B68128 pIC50 (converted)
Outline: as §4

[10] = test system: Trichophyton rubrum; test: Antifungal activity in vitro, resazurin growth inhibition: Trichophyton rubrum (B68183); conditions: for IC50: read-out: Inf. C: Trichophyton rubrum B68183 pIC50 (converted)
Outline: as §4

[11] = test system: Rhizopus oryzae; test: Antifungal activity in vitro, resazurin growth inhibition: Rhizopus oryzae (IHEM5223)
Description: as §2, §3

Row | SMILES | Inf. D: Candida parapsilosis B66126, pIC50 [1] | Inf. A: Sporothrix schenkii B62482, pIC50 [2] | Inf. E: Aspergillus fumigatus B42928, pIC50 [3] | Inf. I: Scedosporium prolificans IHEM21157, pIC50 [4] | Inf. K: Rhizomucor miehei IHEM13391, pIC50 [5] | Inf. H: Scedosporium apiospermum IHEM3817, pIC50 [6] | Inf. F: Cryptococcus neoformans B66663, pIC50 [7] | Inf. G: Trichophyton mentagrophytes B70554, pIC50 [8] | Inf. B: Microsporum canis B68128, pIC50 [9] | Inf. C: Trichophyton rubrum B68183, pIC50 [10] | Inf. J: Rhizopus oryzae IHEM5223, pIC50 [11] | IC50 [1] [µM] | IC50 [2] [nM] | IC50 [3] [nM] | IC50 [4] [nM] | IC50 [6] [µM] | IC50 [7] [µM] | IC50 [8] [nM] | IC50 [9] [nM] | IC50 [10] [nM]
1 | Fc1cc(F)c2c(c1)-n1cccc1C(c1ccc3sccc3c1)=NC2 [Compound 176] | 6.03 | 5.70 | 6.49 | 6.15 | <4.19 | 5.54 | 6.49 | 6.57 | 6.89 | 6.90 | <4.19 |  |  |  |  |  |  |  |  | 
2 | Cl.Clc1cccc2c1CNC(c1cc3ccccc3o1)c1cccn1-2 (racemic) [Compound 30] | 5.22 | 4.89 | 6.32 | <4.19 | <4.19 | 4.94 | <4.19 | 6.15 | 6.27 | 6.29 | <4.19 |  |  |  |  |  |  |  |  | 
3 | Cc1ccc2cc(C3=NCc4c(Cl)cccc4-n4cccc43)oc2c1 [Compound 138] | <4.19 | <4.19 | <4.19 | 6.32 | <4.19 | 5.78 | <4.19 | 6.83 | 6.99 | 6.83 | <4.19 |  |  |  |  |  |  |  |  | 
4 | Clc1cccc2c1CN=C(c1cc3ccccc3o1)c1cccn1-2 [Compound 118] | 5.70 | 5.70 |  |  | <4.19 | <4.19 | 5.30 | 7.07 |  |  | <4.19 |  |  |  |  |  |  |  |  | 
5 | Clc1cccc2c1CN=C(c1cccnc1)c1cccn1-2 [Compound 199] | <4 | <4 | <4 | <4 |  | <4 | 5.00 | <4 | 4.50 | 5.00 |  |  |  |  |  |  |  |  |  | 
6 | Clc1ccc2c(c1)-n1cccc1C(c1cnc3ccccc3c1)=NC2 [Compound 206] | <4 | 5.33 | 5.33 | 6.00 |  | 5.00 | 5.33 | 5.33 | 5.00 | 6.00 |  |  |  |  |  |  |  |  |  | 
7 | Clc1ccc2c(c1)-n1cccc1C(c1ccc3nc[nH]c3c1)=NC2 [Compound 204] | <4 | <4 | <4 | <4 |  | <4 | <4 | <4 | 4.50 | 4.67 |  |  |  |  |  |  |  |  |  | 
8 | Clc1cccc2c1CN=C(c1ccncc1)c1cccn1-2 [Compound 198] | <4 | <4 | <4 | <4 |  | <4 | 5.00 | <4 | 4.00 | <4 |  |  |  |  |  |  |  |  |  | 
9 | Clc1ccc2c(c1)-n1cccc1C(c1ccncc1)=NC2 [Compound 203] | <4 | <4 | <4 | <4 |  | <4 | <4 | <4 | 4.50 | 4.67 |  |  |  |  |  |  |  |  |  | 
10 | c1ccc2c(c1)CN=C(c1cnc3ccccc3c1)c1cccn1-2 [Compound 202] |  |  |  |  |  |  |  |  |  |  |  | > 100 | 1000 | 2140 | 100 | 10 | 10 | 468 | 10 | 100
11 | Clc1cccc2c1CN=C(c1cnc3ccccc3c1)c1cccn1-2 [Compound 201] |  |  |  |  |  |  |  |  |  |  |  | > 100 | > 100000 | > 100000 | 100 | > 100 | > 100 | > 100000 | 1000 | 1000
12 | Clc1cccc2c1CN=C(c1ccc3ccccc3n1)c1cccn1-2 [Compound 197] | 4.00 | 5.00 | <4 | 5.00 |  | <4 | 5.00 | 5.33 | 6.00 | 6.00 |  |  |  |  |  |  |  |  |  | 
13 | Cc1cccc2oc(C3=NCc4ccc(Cl)cc4-n4cccc43)cc12 [Compound 133] | <4.19 | <4.19 | <4.19 |  |  |  | 5.83 | <4.19 | <4.19 | <4.19 |  |  |  |  |  |  |  |  |  | 
14 | Clc1cccc2c1CN=C(c1ccc3nsnc3c1)c1cccn1-2 [Compound 194] | <4.19 | <4.19 | <4.19 |  |  |  | <4.19 | 6.06 | <4.19 | 6.82 |  |  |  |  |  |  |  |  |  | 
15 | Br.CCn1ccc(C2NCc3c(Cl)cccc3-n3cccc32)n1 (racemic) [Compound 10] | <4.19 | <4.19 | <4.19 |  |  |  | <4.19 | <4.19 | 4.25 | <4.19 |  |  |  |  |  |  |  |  |  | 
16 | Cl.Clc1cc(Cl)c2c(c1)-n1cccc1C(c1cc3ccccc3s1)NC2 (racemic) [Compound 56] | <4.19 | <4.19 | <4.19 |  |  |  | <4.19 | 4.48 | <4.19 | 5.71 |  |  |  |  |  |  |  |  |  | 
17 | CCc1ccc(C2=NCc3c(ccc(Cl)c3Cl)-n3cccc32)cn1 [Compound 75] | <4.19 | <4.19 | <4.19 |  |  |  | <4.19 | <4.19 | 6.45 | <4.19 |  |  |  |  |  |  |  |  |  | 
